Data set [1] in a line: Solubility compared to the free base. Format: physicochemical.
A short description of data set [2]: Bioavailability compared to the free base. Format: in vivo.
The subject of the next data set is MEK kinase. Particulars: from PCT/CN2014/085976 of the applicant; cited from earlier work.
A short description of data set [3]: Special stability study of crystal form I (grinding, heating, pressing). Format: physicochemical. The source says:
Crystal form I of the compound of formula (I) prepared according to the method of Example 2 was ground, heated and pressed.

Data set [4] is described as follows: Stability of crystal form I spread flat in the air under lighting, heating and high humidity, purity detected by HPLC. Particulars: for stability (in words): lighting, high temperature, high humidity, p-toluenesulfonate. It is filed as physicochemical. The method, then:
The product sample of crystal form I prepared in Example 2 was spread flat in the air, to test its stability under conditions of lighting, heating (40° C., 60° C.), and high humidity (RH 75%, RH 90%). Samplings were carried out on Day 5 and Day 10.

The mark [5] stands for this setting: after grinding treatment for 10 min in a mortar under nitrogen atmosphere.
Setting [6] is: after heating treatment for 3 h at 80° C.
Setting [7] is: after pressing treatment (pressed to a slice).

As to `Cc1ccc(Oc2cc(=O)n(C)c(Nc3ccc(I)cc3F)c2C(N)=O)cn1.Cc1ccc(S(=O)(=O)O)cc1` [compound of formula (I), 2-((2-fluoro-4-iodophenyl)amino)-1-methyl-4-((6-methylpyridin-3-yl)oxy)-6-oxo-1,6-di hydropyridine-3-carboxamide p-toluenesulfonate], in data set [1], the solubility result is “greatly improved”. The bioavailability entry in data set [2] was “greatly improved”.

In the case of `Cc1ccc(Oc2cc(=O)n(C)c(Nc3ccc(I)cc3F)c2C(N)=O)cn1` [Example 1, 2-((2-fluoro-4-iodophenyl)amino)-1-methyl-4-((6-methylpyridin-3-yl)oxy)-6-oxo-1,6-dihydropyridine-3-carboxamide], the “inhibitory activity against MEK kinase” value in the data set on MEK kinase was “strong inhibitory activity”.

Regarding `Cc1ccc(Oc2cc(=O)n(C)c(Nc3ccc(I)cc3F)c2C(N)=O)cn1.Cc1ccc(S(=O)(=O)O)cc1` [2-((2-fluoro-4-iodophenyl)amino)-1-methyl-4-((6-methylpyridin-3-yl)oxy)-6-oxo-1,6-di hydropyridine-3-carboxamide p-toluenesulfonate], the Crystal form result in data set [3] (setting [5]), in data set [3] (setting [6]) and in data set [3] (setting [7]) was “form I” each time. Further, the results for the DSC peak in data set [3] (setting [5]), in data set [3] (setting [6]) and in data set [3] (setting [7]) were 237.66 °C, 237.45 °C and 237.75 °C, respectively. Also, the “stability of the crystal form (in words)” value in data set [3] (grinding, pressure and heating) is “stable”. The “purity detected by HPLC” value in data set [4] (40° C., day 0) is 98.86%; in data set [4] (40° C., day 5), 98.85%; in data set [4] (40° C., day 10), 98.88%; in data set [4] (60° C., day 0), 98.86%; in data set [4] (60° C., day 5), 98.89%; in data set [4] (60° C., day 10), 98.88%. Moreover, the “purity detected by HPLC” value was 98.86% in data set [4] (4500 Lux, day 0); 99.08% in data set [4] (4500 Lux, day 5); 99.17% in data set [4] (4500 Lux, day 10); 98.86% in data set [4] (RH75%, day 0); 98.88% in data set [4] (RH75%, day 5); 98.88% in data set [4] (RH75%, day 10). For the same compound, the “purity detected by HPLC” value stood at 98.86% in data set [4] (RH90%, day 0); 98.86% in data set [4] (RH90%, day 5); 98.88% in data set [4] (RH90%, day 10). Moreover, the results for the “stability (in words)” value in data set [4] (listed as crystal form I) and in data set [4] were “good stability” and “stable”, respectively.

The values above are taken from patent US10118911B2, “P-toluenesulfonate for MEK kinase inhibitor, and crystal form thereof and preparation method therefor” (Jiangsu Hengrui Medicine Co., Ltd., priority 2015, dated 2018).
